Laboratory results: paper PMC7870626, “Neurotoxicity and underlying cellular changes of 21 mitochondrial respiratory chain inhibitors” (Archives of Toxicology, 2021)

System: LUHMES cells
Test: NeuroGlycoTest (metabolic glycoengineering, KE3 assay)
Format: cell-based, human
Conditions: d6 LUHMES, 6 h
Protocol: The NeuroGlycoTest was performed as previously described (Kranaster et al. [2020]). In brief, d6 LUHMES cells were co-treated for 6 h with the respiratory chain inhibitors together with 10 µM azide-tagged mannosamine precursor sugar (Ac4ManNAz), synthesized according to published procedures (Saxon et al. [2002]). After PBS-washing, a dibenzylcyclooctyne-PEG4-biotin (DBCO-biotin) [100 μM] (Jena Bioscience, Jena, Germany) solution was added for 20 min at 37 °C to label the incorporated azide-tagged sialic acids (= SiaAz).
For detection of MGE-sialoproteins, cells in 6-well plates were lyzed in Laemmli buffer and boiled for 5 min at 95 °C. […] Relative band intensity was quantified using a self-developed image evaluation software. […] At least two blots from independent experiments were quantified.
For detection of neurite MGE, cells in 8-well µ-slides were further incubated with a mixture of streptavidin-Alexa Fluor 488 [8 μg/ml] […] The processed images were analyzed using the SUIKER software (Karreman et al. [2019]) that simultaneously, from the same image, detected and quantified viability (based on the Hoechst staining), neurite area (based on the Calcein staining) and neurite MGE sialic acids (based on the streptavidin-Alexa Fluor 488 label). […]

CCCCCC[C@H]1C(=O)O[C@H](C)[C@H](NC(=O)c2cccc(NC=O)c2O)C(=O)O[C@@H](C)[C@@H]1OC(=O)CC(C)C [Antimycin A]
Reduction of neurite area in the NeuroGlycoTest (highest non-cytotoxic concentration): more than 25% | Neurite MGE signal / proteostasis disturbance (in words) (highest non-cytotoxic concentration (antimycin A 50 µM)): strong decrease
